According to PMC9271885 (eBioMedicine, 2022):
Where “and” joins values, the source holds several entries; their conditions need not be identical. Equal entries are not always repeated. Where two headings read alike, the source gives them in different places.

Experiment: Quantification of TIZ in plasma, lung and nasal turbinates of hamsters (HPLC-UV)
Type: in vivo, Syrian hamsters
Experimental: Quantification of TIZ in plasma and lung tissues was performed by high-performance liquid chromatography with UV detection method (Alliance 2695, Waters, USA) with a lower limit of quantification of 0.01µg/mL. The mobile phase consisted of 0.1% FA in water and 0.1% of FA in ACN (65:35, v/v). The chromatographic separation was achieved using an isocratic mode with an Xbridge BEH C18 2.5μm 4.6 × 100mm column. Peak area was quantified at 340nm using the Waters 2489 detector. TIZ was extracted by a simple protein precipitation method, using acetonitrile for plasma and ice-cold acetonitrile for clarified lung homogenates. Briefly, 200µL of samples matrix was added to 1000µL of acetonitrile solution containing the internal standard (thiopental), then vortexed for 2min followed by centrifugation for 10min at 4°C. The supernatant medium was evaporated under vacuum, then transferred to a 1.5mL Eppendorf tube. The dried residue was reconstituted with 100µl of ACN:water (50:50), vortexed for 30 seconds and centrifuged again for 10min at 4°C. The supernatant was transferred to an autosampler and 50µL was injected.
We used tissues from infected animals sacrificed at 3 dpi following multiple administration (animals from Figure 3); an additional group of uninfected animals treated with a single dose of 13.5mg was used as control. TIZ concentration in plasma and in lung was quantified at 1, 2 and 4 hours post treatment for the single dose analysis (group of 3 animals) and at 12 hours after the last administration for the multiple dose analysis (group of 6 animals).

[1] = multiple dose NTZ 500mg/kg/day BID oral, at 3 dpi, 12 h (trough), individual values
[2] = multiple dose NTZ 750mg/kg/day TID oral, at 3 dpi, 12 hours (trough), individual values
[3] = multiple dose, infected animals, nitazoxanide per os 500 mg/kg/day BID, 12h post-administration, individual animals
[4] = multiple dose, infected animals, nitazoxanide per os 750 mg/kg/day TID, 12h post-administration, individual animals
[5] = single dose nitazoxanide 13.5mg, uninfected animals, 1h post-administration, individual animals
[6] = single dose nitazoxanide 13.5mg, uninfected animals, 2h post-administration, individual animals
[7] = single dose nitazoxanide 13.5mg, uninfected animals, 4h post-administration, individual animals
[8] = single oral dose 13.5mg NTZ, uninfected hamsters, 1 h post-treatment, individual values
[9] = single oral dose 13.5mg NTZ, uninfected hamsters, 2 h post-treatment, individual values
[10] = single oral dose 13.5mg NTZ, uninfected hamsters, 4 h post-treatment, individual values

O=C(Nc1ncc([N+](=O)[O-])s1)c1ccccc1O [TIZ, tizoxanide]
Kp at 12 h (Syrian, hamster, in vivo, 2.8 mg/kg/day TID, multiple dose, infected animals, nitazoxanide IN 2,8 mg/kg/day TID, 12h post-administration, individual animals, read-out: Lung to plasma ratio): 12.8 | concentration at 12 h (Syrian, hamster, in vivo, 2.8 mg/kg/day TID, multiple dose, infected animals, nitazoxanide IN 2,8 mg/kg/day TID, 12h post-administration, individual animals, read-out: Tizoxanide concentration in blood): 8 ng/mL | concentration at 12 h (Syrian, hamster, in vivo, 2.8 mg/kg/day, multiple dose, infected animals, nitazoxanide IN 2,8 mg/kg/day TID, 12h post-administration, individual animals, read-out: Tizoxanide concentration in blood): 30 nM | concentration at 12 h (Syrian, hamster, in vivo, 2.8 mg/kg/day, multiple dose, infected animals, nitazoxanide IN 2,8 mg/kg/day TID, 12h post-administration, individual animals, read-out: Tizoxanide concentration in lungs): 11.7 ng/mL and 40 nM | concentration at 12 h (Syrian, hamster, in vivo, 750 mg/kg/day TID, multiple dose, infected animals, nitazoxanide per os 750 mg/kg/day TID, 12h post-administration, individual animals, read-out: Tizoxanide concentration in lungs): 40 nM | Kp at 12 h (hamster, in vivo, 2.8 mg/kg/day, multiple dose NTZ 2.8mg/kg/day TID intranasal, at 3 dpi, 12 hours (trough), read-out: L/p ratio): 1280 | concentration at 12 h (hamster, in vivo, 2.8 mg/kg/day, multiple dose, infected animals, nitazoxanide IN 2,8 mg/kg/day TID, 12h post-administration, individual animals, read-out: Tizoxanide concentration in lungs): 103 ng/g | concentration at 12 h (hamster, in vivo, 2.8 mg/kg/day, multiple dose, infected animals, nitazoxanide IN 2,8 mg/kg/day TID, 12h post-administration, individual animals, read-out: Tizoxanide concentration in nasal turbinates): 14.8 ng/mL and 60 nM | Kp (hamster, in vivo, 13.5 mg, after single-dose administration (13.5mg NTZ), hamsters, read-out: lung/plasma ratio): 0.022 to 0.048 | concentration at 1 h (hamster, in vivo, 13.5 mg, single dose nitazoxanide 13.5mg, uninfected animals, 1h post-administration, individual animals, read-out: Tizoxanide concentration in lungs): 21.5 ng/mL and 80 nM and 161 ng/g | Kp at 2 h (hamster, in vivo, 13.5 mg, single dose nitazoxanide 13.5mg, uninfected animals, 2h post-administration, individual animals, read-out: Lung to plasma ratio): 0.027 | concentration at 2 h (hamster, in vivo, 13.5 mg, single dose nitazoxanide 13.5mg, uninfected animals, 2h post-administration, individual animals, read-out: Tizoxanide concentration in lungs): 17.1 ng/mL and 60 nM and 132 ng/g | Kp at 4 h (hamster, in vivo, 13.5 mg, single dose nitazoxanide 13.5mg, uninfected animals, 4h post-administration, individual animals, read-out: Lung to plasma ratio): 0.042 | concentration at 4 h (hamster, in vivo, 13.5 mg, single dose nitazoxanide 13.5mg, uninfected animals, 4h post-administration, individual animals, read-out: Tizoxanide concentration in lungs): 8.3 ng/mL and 30 nM and 61 ng/g | concentration at 12 h (hamster, in vivo, 500 mg/kg/day BID, multiple dose NTZ 500mg/kg/day BID oral, infected hamsters at 3 dpi, 12 h after last dose (trough), mean ± SD, read-out: TIZ concentration Plasma): 940 ng/mL and 940 nM | concentration at 12 h (hamster, in vivo, 500 mg/kg/day BID, multiple dose, infected animals, nitazoxanide per os 500 mg/kg/day BID, 12h post-administration, individual animals, read-out: Tizoxanide concentration in lungs): 8.1 ng/mL and 30 nM and 57 ng/g | concentration at 12 h (hamster, in vivo, 750 mg/kg/day TID, multiple dose NTZ 750mg/kg/day TID oral, infected hamsters at 3 dpi, 12 hours after last dose (trough), mean ± SD, read-out: TIZ concentration Plasma): 1490 ng/mL and 1.49 µM | concentration at 1 h (hamster, in vivo, po, 13.5 mg, single oral dose 13.5mg NTZ, uninfected hamsters, 1 h post-treatment, mean ± SD, read-out: TIZ concentration Plasma): 5160 ng/mL and 5.16 µM | Kp at 2 h (hamster, in vivo, po, 13.5 mg, single oral dose 13.5mg NTZ, uninfected hamsters, 2 h post-treatment, individual values, read-out: L/p ratio (%)): 0.027 | concentration at 2 h (hamster, in vivo, po, 13.5 mg, single oral dose 13.5mg NTZ, uninfected hamsters, 2 h post-treatment, mean ± SD, read-out: TIZ concentration Plasma): 3390 ng/mL and 3.39 µM | Kp at 4 h (hamster, in vivo, po, 13.5 mg, single oral dose 13.5mg NTZ, uninfected hamsters, 4 h post-treatment, individual values, read-out: L/p ratio (%)): 0.042 | concentration at 4 h (hamster, in vivo, po, 13.5 mg, single oral dose 13.5mg NTZ, uninfected hamsters, 4 h post-treatment, mean ± SD, read-out: TIZ concentration Plasma): 820 ng/mL and 820 nM | TIZ concentration Lung (µM/g) (multiple dose NTZ 2.8mg/kg/day TID intranasal, at 3 dpi, 12 hours (trough), individual values): 0.39 µM/g and 0.41 µM/g | L/p ratio (%) [1]: 2.7% and 32.8% | TIZ concentration Lung (µM/g) [1]: 0.21 µM/g | L/p ratio (%) [2]: 2.9% and 6.3% | TIZ concentration Lung (µM/g) [2]: 0.28 µM/g and 0.60 µM/g | Tizoxanide concentration in lungs (multiple dose, infected animals, nitazoxanide IN 2,8 mg/kg/day TID, 12h post-administration, individual animals): 0.39 µM/g of lung and 11.3 ng/mL and 110 ng/g of lung and 0.41 µM/g of lung | Lung to plasma ratio [3]: 2.7% and 32.8% | Tizoxanide concentration in blood [3]: 40 ng/mL and 159 ng/mL and 2131 ng/mL and 2192 ng/mL and 171 ng/mL | Tizoxanide concentration in lungs [3]: 0.21 µM/g of lung and 10.6 ng/mL and 56 ng/g of lung | concentration at 12 h (multiple dose, infected animals, nitazoxanide per os 500 mg/kg/day BID, 12h post-administration, individual animals, read-out: Tizoxanide concentration in blood): 150 nM and 600 nM and 8030 nM and 8260 nM and 640 nM | concentration at 12 h (multiple dose, infected animals, nitazoxanide per os 500 mg/kg/day BID, 12h post-administration, individual animals, read-out: Tizoxanide concentration in lungs): 40 nM | Lung to plasma ratio [4]: 2.9% and 6.3% | Tizoxanide concentration in blood [4]: 40 ng/mL and 2494 ng/mL and 79 ng/mL and 2205 ng/mL and 1637 ng/mL and 2500 ng/mL | Tizoxanide concentration in lungs [4]: 9.7 ng/mL and 73 ng/g of lung and 0.28 µM/g of lung and 21.0 ng/mL and 158 ng/g of lung and 0.60 µM/g of lung | concentration at 12 h (multiple dose, infected animals, nitazoxanide per os 750 mg/kg/day TID, 12h post-administration, individual animals, read-out: Tizoxanide concentration in blood): 150 nM and 9400 nM and 300 nM and 8310 nM and 6170 nM and 9430 nM | concentration at 12 h (multiple dose, infected animals, nitazoxanide per os 750 mg/kg/day TID, 12h post-administration, individual animals, read-out: Tizoxanide concentration in lungs): 80 nM | Lung to plasma ratio [5]: 4.8% and 2.2% | Tizoxanide concentration in blood [5]: 3319 ng/mL and 10008 ng/mL and 2151 ng/mL | Tizoxanide concentration in lungs [5]: 0.61 µM/g of lung and 26.7 ng/mL and 224 ng/g of lung and 0.84 µM/g of lung | concentration at 12 h (single dose nitazoxanide 13.5mg, uninfected animals, 1h post-administration, individual animals, read-out: Tizoxanide concentration in blood): 12510 nM and 37730 nM and 8110 nM | concentration at 12 h (single dose nitazoxanide 13.5mg, uninfected animals, 1h post-administration, individual animals, read-out: Tizoxanide concentration in lungs): 100 nM | Tizoxanide concentration in blood [6]: 1477 ng/mL and 3758 ng/mL and 4927 ng/mL | Tizoxanide concentration in lungs [6]: 0.50 µM/g of lung | concentration at 12 h (single dose nitazoxanide 13.5mg, uninfected animals, 2h post-administration, individual animals, read-out: Tizoxanide concentration in blood): 5570 nM and 14170 nM and 18580 nM | Tizoxanide concentration in blood [7]: 344 ng/mL and 666 ng/mL and 1459 ng/mL | Tizoxanide concentration in lungs [7]: 0.23 µM/g of lung | concentration at 12 h (single dose nitazoxanide 13.5mg, uninfected animals, 4h post-administration, individual animals, read-out: Tizoxanide concentration in blood): 1300 nM and 2510 nM and 5500 nM | L/p ratio (%) [8]: 4.8% and 2.2% | TIZ concentration Lung [8]: 0.16 µg/g and 0.22 µg/g | TIZ concentration Lung (µM/g) [8]: 0.61 µM/g and 0.84 µM/g | TIZ concentration Lung [9]: 0.13 µg/g | TIZ concentration Lung (µM/g) [9]: 0.50 µM/g | TIZ concentration Lung [10]: 0.06 µg/g | TIZ concentration Lung (µM/g) [10]: 0.23 µM/g
